Legend:
[1] = tested on: testicular steroidogenosis; experiment: inhibitory activity on testicular steroidogenosis in a patient with prostate cancer; format: in vivo, human; settings: intranasal 500 μg twice a day
Text: The inhibitory activity of [D Ser (tbu)^6 des Gly NH2^10 ] […] The results are reported in the graphs of sheet 2 of the Figures.

ovarian steroidogenosis = experiment: inhibitory activity on ovarian steroidogenosis in women (seric progesterone by radioimmunoassay); format: in vivo; settings: for seric level of progesterone, reduction compared to the controls: 500 μg intranasal at 8 A.M. and 5 P.M. of one luteal-phase day, typical case (sheet 3); for level of progesterone as % of pretreatment cycles (100%): 12 cycles
Description: The study was conducted for 6 consecutive cycles consisting of 2 pretreatment cycles, 2 treatment cycles and 2 post-treatment cycles. […] Daily blood samples were taken between 4 and 6 P.M. to measure seric levels of LH, FSH, progesterone and estradiol which were determined by radioimmuno-logictests with double antibodies. The antibodies to measure LH and FSH were furnished by the National Pituitory Agency of N.I.H. of Bethesda, Md.
Estradiol and progesterone were measured with highly specific antibodies developed against 7-(0-carboxymethyl)-oxime of estradiol and 12-(0-carboxymethyl)-oxime of progesterone, respectively [3H] 17β-estradiol and ^125 I-progesterone-12-[0-carboxymethyl)-oxime]used as tracers. The serum was extracted with benzene and the steroids were separated with a LH-20 column before the determination. The radioimmunological results were exploited by the program derived from model II of Rodbard and Lewald as in Example 1 and the statistical significance was measured by the multiple level test of Ducan-Kramer of Example 1. The results shown in the graphs of sheets 3 to 5 of the Figures.

[2] = tested on: testicular steroidogensis; experiment: inhibitory activity against testicular steroidogenesis in men in good health (seric LH, FSH and steroids by radioimmunoassay); format: in vivo
Description: The said product was administered intranasally at a dose of 500 μg in a few drops of distilled water at 8 A.M. on the third day of the test. For 2 days prior to the treatment and for 6 days after the treatment, samples of blood were taken daily at 8 A.M., 3 P.M. and 10 P.M. On the day of administration of the LH-RH agonist, blood samples were taken at 11 A.M. and 6 P.M.
The series concentrations of LH and FSH were measured by radioimmuno-logic dosages with double antibodies and the antibodies for measuring LH and FSH were furnished by the National Pituitary Agency of N.I.H. in Bethesda, Md. The seric concentrations of steroids was measured by radioimmuno-logic dosages in which one ml of serum was extracted with ether and the steroids were separated on a LH-20 column before measuring with radioimmuno-logic dosages. The radioimmuno-logic dosage results were determined by a program derived from model II of Rodbard et al [Second Karolinska Symposium on Research Methods in Reproductive Endrocrinology, Diczfalusky Editor, Copenhague (1970), p. 79-103]. The statistical significance was determined by the "multiple level test" of Duncan-Kramer [Kramer, Biometrics, Vol. 12 (1956), p. 307]. The results are shown in the graphs on sheet 1 of the Figures filed herewith.

[3] = 12 cycles of treatment (sheet 5)

Compound: CCNC(=O)[C@@H]1CCCN1C(=O)[C@H](CCCNC(=N)N)NC(=O)[C@H](CC(C)C)NC(=O)[C@@H](COC(C)(C)C)NC(=O)[C@H](Cc1ccc(O)cc1)NC(=O)[C@H](CO)NC(=O)[C@H](Cc1c[nH]c2ccccc12)NC(=O)[C@H](Cc1c[nH]cn1)NC(=O)[C@@H]1CCC(=O)N1 [[D Ser (tbu)^6 des Gly NH2^10]LH-RH ethylamide]
- level of androgenic steroids in plasma [1]: diminution
- level of testosterone ([1]; two weeks of treatment): stabilized at a very low level
- seric level of progesterone, reduction compared to the controls (ovarian steroidogenosis; first cycle of treatment): 13%
- seric level of progesterone, reduction compared to the controls (ovarian steroidogenosis; second cycle of treatment): 34%
- level of progesterone, reduction compared to the controls (ovarian steroidogenosis; [3]): 46%
- scale (range) of the level of progesterone compared to the controls (ovarian steroidogenosis; [3]): 13 to 127%
- level of progesterone as % of pretreatment cycles (100%) (ovarian steroidogenosis; cycles of post-treatment): 99%
- level of progesterone as % of pretreatment cycles (100%) (ovarian steroidogenosis; cycles of treatment): 46%
- day after administration on which the steroid level returned to normal ([2]; human, single intranasal dose 500 μg): fourth day
- time to return of LH and FSH to normal levels after administration ([2]; men, intranasal 500 μg): 8 to 12 h
- seric concentration of 17β-estradiol after the deferred elevation ([2]; men, intranasal 500 μg, day after treatment, different subjects, elevated from 20 to 35): 100 to 250 pg/mL
- seric concentration of pregnenolone, 17-OH-pregnenolone, progesterone, 17-OH-progesterone, Δ5-androstene-3β,17β-diol and testosterone on the day of treatment ([2]; men, intranasal 500 μg, day of treatment): increased

From US4743589A, “Treatment of endometriosis” (Roussel UCLAF, priority 1979, dated 1988)
